Source: patent publication US20220163532A1, “NUCLEAR-DERIVED EXOSOMES AND METHODS OF USE THEREOF” (Board of Regents, The University of Texas System, priority 2019, published 2022)

Tested on: OVCAR-5 and OVCAR-8 cells
Assay: MN quantification in ovarian cancer cells treated with genotoxic drugs (IF, Lamin A/C)
Type: cell-based, human
Conditions: topotecan 10 nM or olaparib 20 μM, vs DMSO
Experimental: IF experiments and MN quantification. Cells were plated at a density of 5×10^4 cells on sterile, 0.17-mm-thick coverslips (12-548-A, Thermo Fisher Scientific) placed at the bottom of six-well plates. The next day, cells were treated for 24 hours with either vehicle control dimethyl sulfoxide (DMSO; 1:1000 dilution; D2650, Sigma-Aldrich), 20 μM olaparib (O-9201, LC Laboratories), or 10 nM topotecan (T2705-50MG, Sigma-Aldrich). After 24 hours, the cells were washed with PBS and refed with the appropriate cell culture medium to grow for another 48 hours, for a total time of 72 hours after initial plating on the coverslips.
The drug-treated cells were first washed three times with PBS, fixed with 4% paraformaldehyde (PFA; 50-980-487, Thermo Fisher Scientific) diluted in PBS, and incubated at RT for 15 min with light rocking. […] Last, cells on coverslips were then washed four times with PBS and mounted on slides using ProLong Diamond Antifade Mountant (P36961, Thermo Fisher Scientific) and imaged with a Leica fluorescence microscope (Leica DM4000 M LED; Leica Microsystems) or an Andor Revolution XDi WD Spinning Disk Confocal microscope. For MN quantification, the number of MN in each 40× field was counted using 10 fields per sample. […]

SMILES: CC[C@@]1(O)C(=O)OCc2c1cc1n(c2=O)Cc2cc3c(CN(C)C)c(O)ccc3nc2-1 [topotecan]
- number of MN: increased significantly
